Measurements published in patent publication US8735414B2 (priority 2009, dated 2014).

Tested on: bicistronic HCV replicon (replicon RNA, GenBank Accession No. AJ242654)
Test: HCV Replicon Assay
Type: cell-based
Settings: Hepatitis C virus, 72 h, read-out: Replicon IC50

Row | SMILES | IC50
1 | CNC(=O)c1c(-c2ccc(S(=O)(=O)N[C@@H](C)C(F)(F)F)cn2)n(C2CCC2)c2cc(C)c(F)cc12 [compound 801, 1-cyclobutyl-5-fluoro-N,6-dimethyl-2-(5-{[(2S)-1,1,1-trifluoropropan-2-yl]sulfamoyl}pyridin-2-yl)-1H-indole-3-carboxamide] | < 500 nM
2 | CCc1cc2c(cc1F)c(C(N)=O)c(-c1ccc(S(=O)(=O)N[C@@H](C)C(F)(F)F)cn1)n2-c1ccncn1 [compound 1041, 6-ethyl-5-fluoro-1-(pyrimidin-4-yl)-2-(5-{[(2S)-1,1,1-trifluoropropan-2-yl]sulfamoyl}pyridin-2-yl)-1H-indole-3-carboxamide] | < 500 nM
3 | CC(C)S(=O)(=O)Nc1ccc(-c2c(C#N)c3ccc(OCC(F)(F)F)cc3n2CC2CC2)cn1 [compound 291, N-{5-[3-cyano-1-(cyclopropylmethyl)-6-(2,2,2-trifluoroethoxy)-1H-indol-2-yl]pyridin-2-yl}propane-2-sulfonamide] | 500 to 2000 nM
4 | Cc1ccc2c(C#N)c(-c3ccc(S(=O)(=O)N[C@H](C)C(F)(F)F)cn3)n(-c3ccccn3)c2c1 [compound 671, 6-[3-cyano-6-methyl-1-(pyridin-2-yl)-1H-indol-2-yl]-N-[(2R)-1,1,1-trifluoropropan-2-yl]pyridine-3-sulfonamide] | < 500 nM
5 | Cc1cc2c(cc1F)c(C#N)c(-c1ccc(S(=O)(=O)NC3(C(F)(F)F)CC3)cn1)n2C1CCCCC1 [compound 856, 6-(3-cyano-1-cyclohexyl-5-fluoro-6-methyl-1H-indol-2-yl)-N-[1-(trifluoromethyl)cyclopropyl]pyridine-3-sulfonamide] | < 500 nM
6 | C[C@H](NS(=O)(=O)c1cnc(-c2c(C#N)c3ccc(F)cc3n2C2CCCC2)nc1)C1CC1 [compound 497, 2-(3-cyano-1-cyclopentyl-6-fluoro-1H-indol-2-yl)-N-[(1S)-1-cyclopropylethyl]pyrimidine-5-sulfonamide] | < 500 nM
7 | C=CCc1cc2c(cc1F)c(Cl)c(-c1ccc(S(=O)(=O)N[C@@H](C)C(F)(F)F)cn1)n2-c1ncccn1 [compound 968, 6-[3-chloro-5-fluoro-6-(prop-2-en-1-yl)-1-(pyrimidin-2-yl)-1H-indol-2-yl]-N-[(2S)-1,1,1-trifluoropropan-2-yl]pyridine-3-sulfonamide] | 500 to 2000 nM
8 | COC(=O)c1c(-c2ccc(S(=O)(=O)NC(C)(C)C)cn2)n(C2CCCC2)c2cc(C)c(F)cc12 [compound 755, methyl 2-[5-(tert-butylsulfamoyl)pyridin-2-yl]-1-cyclopentyl-5-fluoro-6-methyl-1H-indole-3-carboxylate] | < 500 nM
9 | Cc1nc(NS(=O)(=O)C(C)(C)C)ccc1-c1c(C(=O)O)c2cc(F)c(OC(F)F)cc2n1C(C)C [compound 1093, 2-{6-[(tert-butylsulfonyl)amino]-2-methylpyridin-3-yl}-6-(difluoromethoxy)-5-fluoro-1-(propan-2-yl)-1H-indole-3-carboxylic acid] | 500 to 2000 nM
10 | Cc1cc2c(cc1F)c(C(N)=O)c(-c1ccc(S(=O)(=O)NC(C)(C)C)cn1)n2C1CCCC1 [compound 683, 2-[5-(tert-butylsulfamoyl)pyridin-2-yl]-1-cyclopentyl-5-fluoro-6-methyl-1H-indole-3-carboxamide] | < 500 nM
11 | [2H][C@@](C)(NS(=O)(=O)c1ccc(-c2c(C#N)c3cc(F)c(C)cc3n2C2CCC2)nc1)C(F)(F)F [compound 1113, 6-(3-cyano-1-cyclobutyl-5-fluoro-6-methyl-1H-indol-2-yl)-N-[(2S)-1,1,1-trifluoro(2-deuterium)propan-2-yl]pyridine-3-sulfonamide] | < 500 nM
12 | Cc1cc(NS(=O)(=O)C(C)(C)C)ncc1-c1c(C(=O)O)c2cc(F)c(OC(F)F)cc2n1[C@H](C)C1CC1 [compound 1086, 2-{6-[(tert-butylsulfonyl)amino]-4-methylpyridin-3-yl}-1-[(1R)-1-cyclopropylethyl]-6-(difluoromethoxy)-5-fluoro-1H-indole-3-carboxylic acid] | < 500 nM
13 | N#Cc1c(-c2ccc(S(=O)(=O)NC(CF)CF)cn2)n(C2CCC2)c2ccc(C(F)F)cc12 [compound 378, 6-[3-cyano-1-cyclobutyl-5-(difluoromethyl)-1H-indol-2-yl]-N-(1,3-difluoropropan-2-yl)pyridine-3-sulfonamide] | < 500 nM
14 | C[C@H](NS(=O)(=O)c1ccc(-c2c(C#N)c3cc(F)ccc3n2C2CCCC2)nc1)C(F)(F)F [compound 435, 6-(3-cyano-1-cyclopentyl-5-fluoro-1H-indol-2-yl)-N-[(2S)-1,1,1-trifluoropropan-2-yl]pyridine-3-sulfonamide] | < 500 nM
15 | C[C@H](NS(=O)(=O)c1ccc(-c2cc3cc(F)c(OC(F)F)cc3n2C2CCC2)nc1)C(F)(F)F [compound 727, 6-[1-cyclobutyl-6-(difluoromethoxy)-5-fluoro-1H-indol-2-yl]-N-[(2S)-1,1,1-trifluoropropan-2-yl]pyridine-3-sulfonamide] | < 500 nM
16 | Cc1cc2c(cc1F)cc(-c1ccc(S(=O)(=O)N[C@@H](C)C(F)(F)F)cn1)n2-c1cccs1 [compound 989, 6-[5-fluoro-6-methyl-1-(thiophen-2-yl)-1H-indol-2-yl]-N-[(2S)-1,1,1-trifluoropropan-2-yl]pyridine-3-sulfonamide] | < 500 nM

Row | SMILES | IC50
17 | CCc1cc2c(cc1F)c(C(N)=O)c(-c1ccc(S(=O)(=O)N[C@@H](C)C(F)(F)F)cn1)n2-c1cccnc1 [compound 1040, 6-ethyl-5-fluoro-1-(pyridin-3-yl)-2-(5-{[(2S)-1,1,1-trifluoropropan-2-yl]sulfamoyl}pyridin-2-yl)-1H-indole-3-carboxamide] | < 500 nM
18 | Cc1ccc2c(C#N)c(-c3ccc(S(=O)(=O)N[C@@H](C)C4CC4)cn3)n(CC3CC3)c2c1 [compound 237, 6-[3-cyano-1-(cyclopropylmethyl)-6-methyl-1H-indol-2-yl]-N-[(1S)-1-cyclopropylethyl]pyridine-3-sulfonamide] | < 500 nM
19 | Cc1cc2c(cc1F)c(C#N)c(-c1ncc(S(=O)(=O)N[C@@H](C)C(F)(F)F)cn1)n2C1CCCCC1 [compound 679, 2-(3-cyano-1-cyclohexyl-5-fluoro-6-methyl-1H-indol-2-yl)-N-[(2S)-1,1,1-trifluoropropan-2-yl]pyrimidine-5-sulfonamide] | < 500 nM
20 | COC(=O)c1c(-c2ncc(S(=O)(=O)N[C@@H](C)C(F)(F)F)cn2)n(C2CCC2)c2cc(C)c(F)cc12 [compound 774, methyl 1-cyclobutyl-5-fluoro-6-methyl-2-(5-{[(2S)-1,1,1-trifluoropropan-2-yl]sulfamoyl}pyrimidin-2-yl)-1H-indole-3-carboxylate] | < 500 nM
21 | Cc1cc2c(C#N)c(-c3ccc(S(=O)(=O)N[C@H](C)C(F)(F)F)cn3)n(C3CCC3)c2cc1OC(F)F [compound 665, 6-[3-cyano-1-cyclobutyl-6-(difluoromethoxy)-5-methyl-1H-indol-2-yl]-N-[(2R)-1,1,1-trifluoropropan-2-yl]pyridine-3-sulfonamide] | 500 to 2000 nM
22 | C=Cc1cc2c(cc1F)c(C#N)c(-c1ccc(S(=O)(=O)N[C@@H](C)C(F)(F)F)cn1)n2-c1ncccn1 [compound 908, 6-[3-cyano-6-ethenyl-5-fluoro-1-(pyrimidin-2-yl)-1H-indol-2-yl]-N-[(2S)-1,1,1-trifluoropropan-2-yl]pyridine-3-sulfonamide] | < 500 nM
23 | C[C@@H](NS(=O)(=O)c1ccc(-c2c(C#N)c3cc(Cl)ccc3n2C2CCCC2)nc1)C(F)(F)F [compound 224, 6-(5-chloro-3-cyano-1-cyclopentyl-1H-indol-2-yl)-N-[(2R)-1,1,1-trifluoropropan-2-yl]pyridine-3-sulfonamide] | < 500 nM
24 | Cc1cc2c(cc1F)c(C#N)c(-c1ccc(S(=O)(=O)N[C@@H](C)C(F)(F)F)cn1)n2C1CCOCC1 [compound 751, 6-[3-cyano-5-fluoro-6-methyl-1-(tetrahydro-2H-pyran-4-yl)-1H-indol-2-yl]-N-[(2S)-1,1,1-trifluoropropan-2-yl]pyridine-3-sulfonamide] | < 500 nM
25 | C[C@H](NS(=O)(=O)c1ccc(-c2c(C#N)c3cc(F)c(CC(F)F)cc3n2C2CCC2)nc1)C(F)(F)F [compound 697, 6-[3-cyano-1-cyclobutyl-6-(2,2-difluoroethyl)-5-fluoro-1H-indol-2-yl]-N-[(2S)-1,1,1-trifluoropropan-2-yl]pyridine-3-sulfonamide] | < 500 nM
26 | COc1ccnc(-n2c(-c3ccc(S(=O)(=O)N[C@@H](C)C(F)(F)F)cn3)c(C#N)c3cc(F)c(C)cc32)c1 [compound 816, 6-[3-cyano-5-fluoro-1-(4-methoxypyridin-2-yl)-6-methyl-1H-indol-2-yl]-N-[(2S)-1,1,1-trifluoropropan-2-yl]pyridine-3-sulfonamide] | < 500 nM
27 | COC(=O)c1c(-c2ccc(NS(=O)(=O)C(C)(C)C)nc2)n(C2CCCCC2)c2cc(OCF)c(F)cc12 [compound 1099, methyl 2-{6-[(tert-butylsulfonyl)amino]pyridin-3-yl}-1-cyclohexyl-5-fluoro-6-(fluoromethoxy)-1H-indole-3-carboxylate] | 500 to 2000 nM
28 | CC(C)NS(=O)(=O)c1cnc(-c2c(C#N)c3ccc(CF)cc3n2C2CCC2)nc1 [compound 315, 2-[3-cyano-1-cyclobutyl-6-(fluoromethyl)-1H-indol-2-yl]-N-(propan-2-yl)pyrimidine-5-sulfonamide] | < 500 nM
29 | Cc1ccc2c(C#N)c(-c3ccc(S(=O)(=O)N[C@@H](C)C4CC4)cn3)n(C3CCCC3)c2c1 [compound 426, 6-(3-cyano-1-cyclopentyl-6-methyl-1H-indol-2-yl)-N-[(1S)-1-cyclopropylethyl]pyridine-3-sulfonamide] | < 500 nM
30 | Cc1cc2c(cc1F)c(C#N)c(-c1ccc(S(=O)(=O)NC(C)(C)C)cn1)n2-c1ncccn1 [compound 824, N-tert-butyl-6-[3-cyano-5-fluoro-6-methyl-1-(pyrimidin-2-yl)-1H-indol-2-yl]pyridine-3-sulfonamide] | < 500 nM
31 | C[C@@H](NS(=O)(=O)c1ccc(-c2c(C#N)c3cc(F)c(OC(F)F)cc3n2-c2ccccn2)nc1)C(F)(F)F [compound 670, 6-[3-cyano-6-(difluoromethoxy)-5-fluoro-1-(pyridin-2-yl)-1H-indol-2-yl]-N-[(2R)-1,1,1-trifluoropropan-2-yl]pyridine-3-sulfonamide] | < 500 nM
